Consider four compounds from PMC8550792, “Evolution of kinase polypharmacology across HSP90 drug discovery” (Cell Chemical Biology, 2021).

Molecules are shown by their SMILES.

Holding throughout (assay): biochemical
Format in all cases: biochemical

Assay [1] addresses T1, 382 unique human kinases (Homo sapiens, UniProt Q9Y2K2).
T1 construct: purchased Reaction Biology (HotSpot contract assay)
The conditions noted are these: SIK3, 10 uM; for remaining activity at 10 µM: read-out: % Enzyme Activity (relative to DMSO controls).

Assay [2] deals with T2, 382 unique human kinases (Homo sapiens, UniProt Q9Y5S2).
T2 construct: purchased Reaction Biology (HotSpot contract assay)
The conditions noted are these: MRCKb/CDC42BPB, 10 uM; for remaining activity at 10 µM: read-out: % Enzyme Activity (relative to DMSO controls).

Assay [3] concerns the target T3, 382 unique human kinases (Homo sapiens, UniProt O94804).
T3 construct: purchased Reaction Biology (HotSpot contract assay)
The note with it: LOK/STK10, 10 uM; for remaining activity at 10 µM: read-out: % Enzyme Activity (relative to DMSO controls).

For assay [4], the target named is T4, 382 unique human kinases (Homo sapiens, UniProt Q12866, A708S).
T4 construct: purchased Reaction Biology (HotSpot contract assay)
T4 sequence (Q12866 21-999 A708S): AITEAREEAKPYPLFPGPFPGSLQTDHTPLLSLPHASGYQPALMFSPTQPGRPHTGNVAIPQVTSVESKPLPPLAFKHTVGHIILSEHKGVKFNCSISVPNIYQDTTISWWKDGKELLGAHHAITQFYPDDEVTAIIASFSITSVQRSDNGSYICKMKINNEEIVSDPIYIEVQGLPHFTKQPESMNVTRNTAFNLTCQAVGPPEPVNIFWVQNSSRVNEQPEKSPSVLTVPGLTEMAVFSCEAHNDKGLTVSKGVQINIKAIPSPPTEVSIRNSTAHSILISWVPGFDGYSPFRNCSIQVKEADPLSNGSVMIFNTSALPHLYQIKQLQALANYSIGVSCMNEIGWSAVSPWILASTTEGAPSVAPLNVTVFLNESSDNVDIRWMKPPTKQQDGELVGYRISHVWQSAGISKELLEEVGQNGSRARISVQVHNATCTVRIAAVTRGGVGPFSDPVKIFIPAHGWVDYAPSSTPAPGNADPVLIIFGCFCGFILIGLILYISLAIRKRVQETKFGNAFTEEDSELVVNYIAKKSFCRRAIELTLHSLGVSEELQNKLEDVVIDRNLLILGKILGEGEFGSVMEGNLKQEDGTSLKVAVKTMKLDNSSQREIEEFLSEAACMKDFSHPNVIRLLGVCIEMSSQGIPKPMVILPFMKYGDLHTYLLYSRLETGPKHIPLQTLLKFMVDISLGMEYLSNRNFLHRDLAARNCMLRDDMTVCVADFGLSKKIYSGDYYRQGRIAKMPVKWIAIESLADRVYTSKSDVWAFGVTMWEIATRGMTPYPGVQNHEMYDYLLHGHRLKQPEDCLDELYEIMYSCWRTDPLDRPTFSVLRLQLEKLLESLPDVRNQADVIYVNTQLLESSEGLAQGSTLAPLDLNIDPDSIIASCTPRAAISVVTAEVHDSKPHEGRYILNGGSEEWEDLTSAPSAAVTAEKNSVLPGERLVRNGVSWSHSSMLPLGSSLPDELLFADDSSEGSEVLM
The conditions noted are these: c-MER (A708S), 10 uM; for remaining activity at 10 µM: read-out: % Enzyme Activity (relative to DMSO controls).

Assay [5] has as its target T5, 382 unique human kinases (Homo sapiens, UniProt P00533, L861Q).
T5 construct: purchased Reaction Biology (HotSpot contract assay)
The note with it: kinase EGFR (L861Q), compound 10 uM; for remaining activity at 10 µM: read-out: % Enzyme Activity (relative to DMSO controls).

Assay [6] addresses T6, 382 unique human kinases (Homo sapiens, UniProt P49759).
T6 construct: purchased Reaction Biology (HotSpot contract assay)
The conditions noted are these: CLK1, 10 uM; for remaining activity at 10 µM: read-out: % Enzyme Activity (relative to DMSO controls).

For assay [7], the target named is T7, 382 unique human kinases (Homo sapiens, UniProt Q8NG66).
T7 construct: purchased Reaction Biology (HotSpot contract assay)
T7 sequence (Q8NG66 1-645): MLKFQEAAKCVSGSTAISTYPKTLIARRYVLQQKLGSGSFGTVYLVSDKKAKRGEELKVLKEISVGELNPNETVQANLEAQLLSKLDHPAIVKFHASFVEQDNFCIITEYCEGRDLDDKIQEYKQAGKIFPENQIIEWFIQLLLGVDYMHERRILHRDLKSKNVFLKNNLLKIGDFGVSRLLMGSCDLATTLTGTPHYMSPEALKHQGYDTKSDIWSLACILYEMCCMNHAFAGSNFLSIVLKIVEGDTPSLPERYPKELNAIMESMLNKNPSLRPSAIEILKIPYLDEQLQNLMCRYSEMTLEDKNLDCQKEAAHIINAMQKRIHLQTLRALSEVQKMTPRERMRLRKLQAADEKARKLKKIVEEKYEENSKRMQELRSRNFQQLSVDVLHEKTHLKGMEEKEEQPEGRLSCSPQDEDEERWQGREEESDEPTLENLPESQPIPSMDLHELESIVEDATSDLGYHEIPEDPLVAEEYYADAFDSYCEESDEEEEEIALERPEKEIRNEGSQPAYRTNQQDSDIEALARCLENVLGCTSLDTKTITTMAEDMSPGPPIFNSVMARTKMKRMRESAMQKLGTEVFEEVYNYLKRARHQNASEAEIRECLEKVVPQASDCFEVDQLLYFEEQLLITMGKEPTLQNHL
The conditions noted are these: NEK11, compound at 10 uM, duplicate values; for remaining activity at 10 µM: read-out: % Enzyme Activity (relative to DMSO controls).

Assay [8] addresses T8, 382 unique human kinases (Homo sapiens, UniProt Q16512).
T8 construct: purchased Reaction Biology (HotSpot contract assay)
The note with it: PKN1/PRK1, 10 uM; for remaining activity at 10 µM: read-out: % Enzyme Activity (relative to DMSO controls).

Assay [9] addresses T9, 382 unique human kinases (Homo sapiens, UniProt Q9Y243).
T9 construct: purchased Reaction Biology (HotSpot contract assay)
The note with it: AKT3, 10 uM; for remaining activity at 10 µM: read-out: % Enzyme Activity (relative to DMSO controls).

Assay [10] addresses T10, 382 unique human kinases (Homo sapiens, UniProt P17612).
T10 construct: purchased Reaction Biology (HotSpot contract assay)
The conditions noted are these: PKA, 10 uM; for remaining activity at 10 µM: read-out: % Enzyme Activity (relative to DMSO controls).

Assay [11] concerns the target T11, 382 unique human kinases (Homo sapiens, UniProt P11362, V561M).
T11 construct: purchased Reaction Biology (HotSpot contract assay)
The conditions noted are these: FGFR1 (V561M), 10 uM; for remaining activity at 10 µM: read-out: % Enzyme Activity (relative to DMSO controls).

The target in assay [12] is T12, 382 unique human kinases (Homo sapiens, UniProt P43405).
T12 construct: purchased Reaction Biology (HotSpot contract assay)
The conditions noted are these: SYK, 10 uM; for remaining activity at 10 µM: read-out: % Enzyme Activity (relative to DMSO controls).

In assay [13] the target is T13, 382 unique human kinases (Homo sapiens, UniProt P12931).
T13 construct: purchased Reaction Biology (HotSpot contract assay)
The note with it: c-Src, [ATP] 15 µM.

In assay [14] the target is T14, 382 unique human kinases (Homo sapiens, UniProt P51812, I416V).
T14 construct: purchased Reaction Biology (HotSpot contract assay)
The note with it: RSK2 (I416V), [ATP] 10 µM, compound 10 uM; for remaining activity at 10 µM: read-out: % Enzyme Activity (relative to DMSO controls).

Assay [15] has as its target T15, 382 unique human kinases (Homo sapiens, UniProt P08581, Y1230A).
T15 construct: purchased Reaction Biology (HotSpot contract assay)
The conditions noted are these: c-MET (Y1230A), 10 uM; for remaining activity at 10 µM: read-out: % Enzyme Activity (relative to DMSO controls).

The target of assay [16] is T16, 382 unique human kinases (Homo sapiens, UniProt O75116).
T16 construct: purchased Reaction Biology (HotSpot contract assay)
The conditions noted are these: ROCK2, 10 uM; for remaining activity at 10 µM: read-out: % Enzyme Activity (relative to DMSO controls).

Where [17] appears, read: compound 10 uM, read-out: % Enzyme Activity (relative to DMSO controls).

T14 sequence (P51812 whole entry I416V): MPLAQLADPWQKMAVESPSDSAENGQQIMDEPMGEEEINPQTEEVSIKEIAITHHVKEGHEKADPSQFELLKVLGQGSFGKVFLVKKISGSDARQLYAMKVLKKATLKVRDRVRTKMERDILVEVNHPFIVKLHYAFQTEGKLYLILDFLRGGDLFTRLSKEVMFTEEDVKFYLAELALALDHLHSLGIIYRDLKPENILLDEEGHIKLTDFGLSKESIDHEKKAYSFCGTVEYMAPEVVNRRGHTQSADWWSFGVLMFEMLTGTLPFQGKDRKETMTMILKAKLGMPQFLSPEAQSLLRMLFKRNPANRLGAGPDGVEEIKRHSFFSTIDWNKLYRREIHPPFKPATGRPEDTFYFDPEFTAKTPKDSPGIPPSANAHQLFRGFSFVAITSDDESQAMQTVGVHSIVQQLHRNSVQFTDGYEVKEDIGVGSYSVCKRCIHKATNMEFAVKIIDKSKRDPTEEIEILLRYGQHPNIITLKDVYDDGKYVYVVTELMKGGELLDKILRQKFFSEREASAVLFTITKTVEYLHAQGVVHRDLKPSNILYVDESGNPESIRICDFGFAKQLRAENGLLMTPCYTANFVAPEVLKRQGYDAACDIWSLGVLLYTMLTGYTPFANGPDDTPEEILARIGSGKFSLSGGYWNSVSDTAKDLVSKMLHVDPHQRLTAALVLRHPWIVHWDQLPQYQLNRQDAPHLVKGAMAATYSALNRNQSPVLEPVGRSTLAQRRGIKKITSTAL
T16 sequence (O75116 whole entry): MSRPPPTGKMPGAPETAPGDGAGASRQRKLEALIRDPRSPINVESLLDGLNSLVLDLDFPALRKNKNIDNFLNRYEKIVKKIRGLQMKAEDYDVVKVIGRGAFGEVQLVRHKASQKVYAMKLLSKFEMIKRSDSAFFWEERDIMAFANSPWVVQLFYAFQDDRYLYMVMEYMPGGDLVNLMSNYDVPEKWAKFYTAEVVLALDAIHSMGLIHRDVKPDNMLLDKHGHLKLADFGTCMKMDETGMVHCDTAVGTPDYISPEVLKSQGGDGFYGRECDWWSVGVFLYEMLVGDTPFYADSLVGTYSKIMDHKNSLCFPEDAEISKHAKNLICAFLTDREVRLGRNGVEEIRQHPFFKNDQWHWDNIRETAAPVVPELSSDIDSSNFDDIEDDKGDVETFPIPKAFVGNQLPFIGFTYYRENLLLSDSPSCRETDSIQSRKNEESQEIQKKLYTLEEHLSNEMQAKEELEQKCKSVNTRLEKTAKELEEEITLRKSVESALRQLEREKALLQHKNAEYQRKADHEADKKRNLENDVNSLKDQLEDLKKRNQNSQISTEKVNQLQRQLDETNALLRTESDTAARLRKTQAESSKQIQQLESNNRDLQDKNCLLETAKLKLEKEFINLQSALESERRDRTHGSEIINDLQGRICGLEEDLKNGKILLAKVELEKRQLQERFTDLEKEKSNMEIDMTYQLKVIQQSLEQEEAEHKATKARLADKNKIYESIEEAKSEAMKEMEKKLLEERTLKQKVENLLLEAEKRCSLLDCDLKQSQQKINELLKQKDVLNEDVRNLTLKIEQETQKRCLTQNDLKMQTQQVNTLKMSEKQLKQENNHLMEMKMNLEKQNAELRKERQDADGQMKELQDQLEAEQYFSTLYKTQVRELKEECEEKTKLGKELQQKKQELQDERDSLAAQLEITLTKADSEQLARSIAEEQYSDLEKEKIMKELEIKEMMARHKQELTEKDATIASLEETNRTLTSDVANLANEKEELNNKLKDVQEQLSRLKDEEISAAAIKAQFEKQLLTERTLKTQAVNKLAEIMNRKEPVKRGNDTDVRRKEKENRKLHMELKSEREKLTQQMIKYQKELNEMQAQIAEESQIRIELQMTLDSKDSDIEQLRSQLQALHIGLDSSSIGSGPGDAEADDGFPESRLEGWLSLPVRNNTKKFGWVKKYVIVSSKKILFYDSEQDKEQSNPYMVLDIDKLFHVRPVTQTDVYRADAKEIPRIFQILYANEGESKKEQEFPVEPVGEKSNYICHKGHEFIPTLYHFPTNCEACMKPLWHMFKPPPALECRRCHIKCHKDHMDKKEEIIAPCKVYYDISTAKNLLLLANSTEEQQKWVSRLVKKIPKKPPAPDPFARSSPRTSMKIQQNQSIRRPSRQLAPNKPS
T3 sequence (O94804 whole entry): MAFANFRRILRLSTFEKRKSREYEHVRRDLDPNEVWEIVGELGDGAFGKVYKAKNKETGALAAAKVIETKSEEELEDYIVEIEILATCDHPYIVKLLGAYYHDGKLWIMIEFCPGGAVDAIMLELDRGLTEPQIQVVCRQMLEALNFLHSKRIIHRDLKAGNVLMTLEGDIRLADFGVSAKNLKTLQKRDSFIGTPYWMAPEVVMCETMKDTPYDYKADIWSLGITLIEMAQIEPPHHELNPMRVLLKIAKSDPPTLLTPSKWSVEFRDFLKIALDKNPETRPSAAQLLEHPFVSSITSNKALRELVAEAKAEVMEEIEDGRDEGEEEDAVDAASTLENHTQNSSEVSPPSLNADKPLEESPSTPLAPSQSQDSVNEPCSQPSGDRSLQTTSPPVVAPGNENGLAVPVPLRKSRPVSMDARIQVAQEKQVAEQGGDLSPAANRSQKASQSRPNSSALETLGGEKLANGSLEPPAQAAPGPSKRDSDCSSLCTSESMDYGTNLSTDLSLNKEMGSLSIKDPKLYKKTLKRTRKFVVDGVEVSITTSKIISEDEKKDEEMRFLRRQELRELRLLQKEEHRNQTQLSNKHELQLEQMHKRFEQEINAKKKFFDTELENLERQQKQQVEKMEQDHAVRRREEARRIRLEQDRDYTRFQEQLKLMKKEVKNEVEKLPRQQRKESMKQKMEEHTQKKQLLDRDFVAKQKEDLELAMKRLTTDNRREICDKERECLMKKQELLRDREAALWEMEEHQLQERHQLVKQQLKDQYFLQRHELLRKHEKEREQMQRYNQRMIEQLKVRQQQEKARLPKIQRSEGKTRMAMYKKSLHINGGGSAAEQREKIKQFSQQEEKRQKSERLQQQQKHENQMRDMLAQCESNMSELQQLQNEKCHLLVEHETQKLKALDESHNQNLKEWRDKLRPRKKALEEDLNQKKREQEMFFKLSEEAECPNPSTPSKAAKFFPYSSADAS
T6 sequence (P49759 whole entry): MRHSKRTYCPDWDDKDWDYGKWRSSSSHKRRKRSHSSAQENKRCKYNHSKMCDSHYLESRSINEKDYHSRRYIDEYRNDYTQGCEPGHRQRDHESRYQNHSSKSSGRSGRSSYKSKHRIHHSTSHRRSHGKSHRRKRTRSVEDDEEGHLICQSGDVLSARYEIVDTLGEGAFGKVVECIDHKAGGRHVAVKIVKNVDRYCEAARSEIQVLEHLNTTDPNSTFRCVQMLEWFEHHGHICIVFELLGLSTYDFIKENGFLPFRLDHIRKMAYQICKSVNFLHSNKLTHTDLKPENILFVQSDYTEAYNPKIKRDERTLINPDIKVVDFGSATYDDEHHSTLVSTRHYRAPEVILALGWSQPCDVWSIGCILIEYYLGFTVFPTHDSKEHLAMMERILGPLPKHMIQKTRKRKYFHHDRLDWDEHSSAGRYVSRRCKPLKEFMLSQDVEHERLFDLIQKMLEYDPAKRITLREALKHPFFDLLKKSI
T8 sequence (Q16512 whole entry): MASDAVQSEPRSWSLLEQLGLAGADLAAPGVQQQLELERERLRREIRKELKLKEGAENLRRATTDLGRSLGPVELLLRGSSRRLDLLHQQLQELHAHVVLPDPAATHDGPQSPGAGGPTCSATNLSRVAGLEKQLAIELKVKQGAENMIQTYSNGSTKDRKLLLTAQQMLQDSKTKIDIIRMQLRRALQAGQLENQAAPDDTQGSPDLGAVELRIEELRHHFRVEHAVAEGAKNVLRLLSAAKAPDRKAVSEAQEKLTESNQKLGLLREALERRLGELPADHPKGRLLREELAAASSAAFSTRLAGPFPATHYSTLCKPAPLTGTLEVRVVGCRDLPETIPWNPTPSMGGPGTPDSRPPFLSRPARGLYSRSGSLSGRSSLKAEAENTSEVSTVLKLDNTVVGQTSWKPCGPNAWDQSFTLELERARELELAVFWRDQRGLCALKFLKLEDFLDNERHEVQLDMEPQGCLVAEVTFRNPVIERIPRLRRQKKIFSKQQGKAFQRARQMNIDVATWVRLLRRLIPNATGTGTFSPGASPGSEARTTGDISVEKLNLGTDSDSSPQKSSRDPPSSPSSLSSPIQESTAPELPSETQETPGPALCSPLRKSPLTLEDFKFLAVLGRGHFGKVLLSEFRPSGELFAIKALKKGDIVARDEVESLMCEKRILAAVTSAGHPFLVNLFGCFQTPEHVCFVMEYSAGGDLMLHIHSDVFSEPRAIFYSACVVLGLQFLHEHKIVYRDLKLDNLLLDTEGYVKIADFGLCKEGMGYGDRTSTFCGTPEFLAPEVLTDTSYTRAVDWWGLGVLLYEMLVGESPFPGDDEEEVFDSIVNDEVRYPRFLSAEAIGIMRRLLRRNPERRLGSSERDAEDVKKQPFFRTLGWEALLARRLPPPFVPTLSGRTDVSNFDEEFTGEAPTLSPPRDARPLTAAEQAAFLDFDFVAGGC
T9 sequence (Q9Y243 whole entry): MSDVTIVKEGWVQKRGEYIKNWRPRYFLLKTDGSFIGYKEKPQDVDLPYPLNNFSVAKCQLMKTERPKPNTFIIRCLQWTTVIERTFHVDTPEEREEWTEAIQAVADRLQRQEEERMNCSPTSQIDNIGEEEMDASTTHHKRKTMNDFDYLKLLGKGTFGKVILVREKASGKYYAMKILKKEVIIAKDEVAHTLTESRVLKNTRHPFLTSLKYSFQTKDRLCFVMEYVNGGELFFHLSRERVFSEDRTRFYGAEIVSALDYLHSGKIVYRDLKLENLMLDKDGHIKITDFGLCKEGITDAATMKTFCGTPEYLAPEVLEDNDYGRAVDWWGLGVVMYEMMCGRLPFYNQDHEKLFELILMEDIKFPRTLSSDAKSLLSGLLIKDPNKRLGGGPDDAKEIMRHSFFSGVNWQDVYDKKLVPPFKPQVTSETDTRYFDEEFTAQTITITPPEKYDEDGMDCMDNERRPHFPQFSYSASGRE

Consider `CC(C)c1cc(-c2n[nH]c(=O)n2-c2ccc3c(ccn3C)c2)c(O)cc1O` [Ganetespib (STA9090)], for which the remaining activity at 10 µM in [1] amounted to 78.3%; in [2] it was 78.9%; in assay [3] it was 77%; in [4] it was 72.7%; in [5] it was 90.9%; in [6], 69.1%. Besides, the remaining activity at 10 µM in [7] turned out to be 117%; in assay [8] it was 71.7%.

On to `CC(C)c1cc(-c2n[nH]c(=O)n2-c2ccc3c(ccn3C)c2)c(O)cc1O` [Ganetespib], for which the remaining activity at 10 µM in assay [9] amounted to 92.1%; in assay [10], 91%; in assay [11], 97.7%; in assay [12], 94%; in assay [13] (setting [17]) it was 9.14%; in assay [14], 56.7%. For the same compound, the remaining activity at 10 µM in assay [15] stood at 117%; in assay [16], 105%. Further, the remaining activity at 1 µM in assay [13] (compound 1 uM, read-out: % Enzyme Activity (relative to DMSO controls)) worked out at 38.8%.

Consider `CCNC(=O)c1noc(-c2cc(C(C)C)c(O)cc2O)c1-c1ccc(CN2CCOCC2)cc1` [Luminespib (AUY-922)], for which the “% Enzyme Activity (relative to DMSO controls)” value in assay [1] is 99.21%; in assay [2], 103.51%; in assay [3] it was 85.80%; in assay [4], 96.08%; in assay [5], 100.91%; in assay [6], 95.73%. In addition, the figures for the “% Enzyme Activity (relative to DMSO controls)” value in assay [7] and in assay [8] were 100.52% and 73.04%, respectively. Besides, the remaining activity at 10 µM in [1] was 99.6%; in assay [2], 111%; in assay [3], 86.5%; in assay [4] it was 98.6%; in assay [5], 104%; in [6], 95.8%. In addition, the results for the remaining activity at 10 µM in assay [7] and in assay [8] were 102% and 75.6%, respectively.

Consider `CCNC(=O)c1noc(-c2cc(C(C)C)c(O)cc2O)c1-c1ccc(CN2CCOCC2)cc1` [Luminespib], for which the “% Enzyme Activity (relative to DMSO controls)” value in assay [9] is 99.02%; in assay [10], 108.65%; in assay [11] it was 101.68%; in assay [12] it was 101.25%; in assay [13] (compound 10 uM) it was 33.43%; in [14], 87.06%. In addition, the “% Enzyme Activity (relative to DMSO controls)” value in assay [15] was found to be 98.90%; in [16], 98.18%. Also, the remaining activity at 10 µM in assay [9] came to 100%; in [10] it was 111%; in [11], 103%; in assay [12], 102%; in [13] (setting [17]) it was 36.4%; in [14] it was 88.9%. The results for the remaining activity at 10 µM in assay [15] and in assay [16] were 101% and 99.3%, respectively.
